Measurements as given in PubChem BioAssay AID330 (DTP/NCI, 2004).
Where “and” joins values, the source holds several entries; their conditions need not be identical. Equal entries are not always repeated. Inconclusive results and toxic doses are left out.

Test system: P388 leukemia ip, CD2F1 mice, survival T/C
Assay: NCI In Vivo Anticancer Drug Screen. Data for tumor model P388 Leukemia (intraperitoneal) in CD2F1 (CDF1) mice
Conditions: endpoint: median survival time, higher = longer survival
How it was run: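 Mice carrying the transplanted tumor received test compound or vehicle. Survival was recorded in each group, and the value is the treated-group measurement divided by that of the vehicle-treated control group.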

[1] = dose: 12.5 mg/kg/injection, schedule: Q01DX009 (ip), vehicle: saline with Tween-80
[2] = dose: 25.0 mg/kg/injection, schedule: Q01DX009 (ip), vehicle: saline with Tween-80
[3] = dose: 50.0 mg/kg/injection, schedule: Q01DX009 (ip), vehicle: saline
[4] = dose: 100.0 mg/kg/injection, schedule: Q01DX009 (ip), vehicle: saline
[5] = dose: 200.0 mg/kg/injection, schedule: Q01DX009 (ip), vehicle: saline
[6] = dose: 100.0 mg/kg/injection, schedule: Q04DX003 (ip), vehicle: saline
[7] = dose: 200.0 mg/kg/injection, schedule: Q04DX003 (ip), vehicle: saline
[8] = dose: 400.0 mg/kg/injection, schedule: Q04DX003 (ip), vehicle: saline
[9] = dose: 50.0 mg/kg/injection, schedule: Q01DX009 (ip), vehicle: saline with Tween-80
[10] = dose: 100.0 mg/kg/injection, schedule: Q01DX009 (ip), vehicle: saline with Tween-80
[11] = dose: 200.0 mg/kg/injection, schedule: Q01DX009 (ip), vehicle: saline with Tween-80
[12] = dose: 50.0 mg/kg/injection, schedule: Q01DX005 (ip), vehicle: saline with Tween-80
[13] = dose: 100.0 mg/kg/injection, schedule: Q01DX005 (ip), vehicle: saline with Tween-80
[14] = dose: 200.0 mg/kg/injection, schedule: Q01DX005 (ip), vehicle: saline with Tween-80
[15] = dose: 50.0 mg/kg/injection, schedule: Q01DX005 (ip), vehicle: Klucel (hydroxypropylcellulose) (HPC)
[16] = dose: 100.0 mg/kg/injection, schedule: Q01DX005 (ip), vehicle: Klucel (hydroxypropylcellulose) (HPC)
[17] = dose: 200.0 mg/kg/injection, schedule: Q01DX005 (ip), vehicle: Klucel (hydroxypropylcellulose) (HPC)
[18] = dose: 50.0 mg/kg/injection, schedule: Q01DX009 (ip), vehicle: Klucel (hydroxypropylcellulose) (HPC)
[19] = dose: 100.0 mg/kg/injection, schedule: Q01DX009 (ip), vehicle: Klucel (hydroxypropylcellulose) (HPC)

In the case of `CCN(CC)c1ccc(/C=C/c2ccnc3ccccc23)cc1`, the T/C [1] is reported as 118 % of control, the T/C (dose: 12.5 mg/kg/injection, schedule: Q04DX003 (ip), vehicle: saline sonified) is reported as 100 % of control and the T/C (dose: 12.5 mg/kg/injection, schedule: Q04DX003 (ip), vehicle: saline with Tween-80) is reported as 90 % of control. For the same compound, the T/C (dose: 20.0 mg/kg/injection, schedule: Q04DX003 (ip), vehicle: saline) was 113 % of control, the T/C [2] was 104 % of control and the T/C (dose: 25.0 mg/kg/injection, schedule: Q04DX003 (ip), vehicle: saline sonified) was 104 % of control. The T/C (dose: 25.0 mg/kg/injection, schedule: Q04DX003 (ip), vehicle: saline with Tween-80) was 100 % of control, the T/C (dose: 40.0 mg/kg/injection, schedule: Q04DX003 (ip), vehicle: saline) was 118 % of control and the T/C (dose: 50.0 mg/kg/injection, schedule: Q04DX003 (ip), vehicle: saline sonified) was 109 % of control. For the same compound, the T/C (dose: 50.0 mg/kg/injection, schedule: Q04DX003 (ip), vehicle: saline with Tween-80) was 109 % of control.

In the case of `Nc1ncccc1OCc1ccccc1`, the T/C [3] is reported as 100 % of control and 110 % of control, the T/C [4] is reported as 107 % of control and 116 % of control and the T/C [5] is reported as 113 % of control and 98 % of control. The T/C (dose: 400.0 mg/kg/injection, schedule: Q01DX009 (ip), vehicle: saline) was 100 % of control and 95 % of control.

In the case of `CC(C)(C)C=O`, the T/C [6] is reported as 100 % of control, the T/C [7] is reported as 100 % of control and the T/C [8] is reported as 100 % of control.

With `O=C(Nc1cccc2c(OC(=O)C(Cl)Cl)c(N=Nc3ccc(S(=O)(=O)Nc4nccs4)cc3)cc(N=Nc3ccc(S(=O)(=O)Nc4nccs4)cc3)c12)C(Cl)Cl` the T/C [9] was 109 % of control and 100 % of control and 104 % of control, the T/C [10] was 108 % of control and 103 % of control and 106 % of control and the T/C [11] was 107 % of control.

In the case of `CCOc1ccc2c(c1)n([O-])c1cc(Cl)ccc1[n+]2=O`, the T/C (dose: 12.5 mg/kg/injection, schedule: Q01DX005 (ip), vehicle: saline with Tween-80) is reported as 111 % of control, the T/C (dose: 25.0 mg/kg/injection, schedule: Q01DX005 (ip), vehicle: saline with Tween-80) is reported as 108 % of control and the T/C [12] is reported as 103 % of control and 115 % of control. For the same compound, the T/C [13] was 107 % of control.

`COC(=O)/C=C1/C(=O)N(C)c2ccccc21` was tested, and the T/C [1] was 98 % of control and 102 % of control, the T/C [2] was 102 % of control and 111 % of control and 90 % of control and the T/C [9] was 100 % of control and 106 % of control and 92 % of control. The T/C [10] was 106 % of control and 110 % of control and 113 % of control.

For `Nc1cc(I)c2cccnc2c1O`, the T/C (dose: 6.25 mg/kg/injection, schedule: Q01DX009 (ip), vehicle: saline) was 119 % of control, the T/C (dose: 12.5 mg/kg/injection, schedule: Q01DX009 (ip), vehicle: saline) was 115 % of control and the T/C (dose: 16.0 mg/kg/injection, schedule: Q01DX009 (ip), vehicle: saline) was 98 % of control. The T/C (dose: 25.0 mg/kg/injection, schedule: Q01DX009 (ip), vehicle: saline) was 92 % of control and 98 % of control, the T/C (dose: 35.0 mg/kg/injection, schedule: Q01DX009 (ip), vehicle: saline) was 107 % of control and the T/C [3] was 119 % of control.

For `O=C1CC(c2ccccc2)NCCC2CN(CCCN1)C(=O)c1ccccc12` (stereo not given), the T/C (dose: 16.25 mg/kg/injection, schedule: Q01DX005 (ip), vehicle: Klucel (hydroxypropylcellulose) (HPC)) was 100 % of control, the T/C (dose: 32.5 mg/kg/injection, schedule: Q01DX005 (ip), vehicle: Klucel (hydroxypropylcellulose) (HPC)) was 100 % of control and the T/C (dose: 65.0 mg/kg/injection, schedule: Q01DX005 (ip), vehicle: Klucel (hydroxypropylcellulose) (HPC)) was 100 % of control. The T/C (dose: 130.0 mg/kg/injection, schedule: Q01DX005 (ip), vehicle: Klucel (hydroxypropylcellulose) (HPC)) was 100 % of control.

`CSc1cnn(-c2ccccc2)[n+]1[O-]` was tested, and the T/C [12] was 98 % of control, the T/C [13] was 110 % of control and the T/C [14] was 94 % of control.

In the case of `CC(=O)Nc1nnc(-c2cc(=O)c3cc(C)ccc3o2)s1`, the T/C [12] is reported as 92 % of control, the T/C [13] is reported as 91 % of control and the T/C [14] is reported as 90 % of control.

`[C-]#[N+]C1CCCCC1.[C-]#[N+]C1CCCCC1.[C-]#[N+]C1CCCCC1.[C-]#[N+]C1CCCCC1.[C-]#[N+]C1CCCCC1.[C-]#[N+]C1CCCCC1.[Mn]` was tested, and the T/C (dose: 0.75 mg/kg/injection, schedule: Q01DX009 (ip), vehicle: saline with Tween-80) was 155 % of control and 159 % of control.

For `N#C/C(=C1/NC(=O)c2ccccc21)c1nc2ccccc2n1CCO`, the T/C (dose: 6.25 mg/kg/injection, schedule: Q01DX009 (ip), vehicle: saline with Tween-80) was 91 % of control, the T/C [1] was 92 % of control and the T/C [2] was 89 % of control. The T/C [11] was 89 % of control.

With `CCOC(=O)C(Cc1c[nH]c2ccccc12)NCCN` (stereo not given) the T/C [3] was 99 % of control, the T/C [4] was 108 % of control and the T/C [5] was 86 % of control.

In the case of `O=S(=O)(/C=C\c1ccccc1)/C=C/c1ccc(F)cc1`, the T/C [12] is reported as 111 % of control, the T/C [13] is reported as 97 % of control and the T/C [14] is reported as 94 % of control.

For `COc1cc([C@@H]2c3cc4c(cc3[C@H](OC(C)=O)[C@H]3COC(=O)[C@@H]23)OCO4)cc(OC)c1OC`, the T/C [2] was 118 % of control, the T/C (dose: 29.3 mg/kg/injection, schedule: Q04DX003 (ip), vehicle: saline with Tween-80) was 88 % of control and the T/C [9] was 150 % of control. For the same compound, the T/C (dose: 66.0 mg/kg/injection, schedule: Q04DX003 (ip), vehicle: saline with Tween-80) was 100 % of control and the T/C (dose: 100.0 mg/kg/injection, schedule: Q04DX003 (ip), vehicle: saline with Tween-80) was 115 % of control.

In the case of `CCOC(=O)CC1(O)CSC(=C(C#N)C#N)S1` (stereo not given), the T/C [12] is reported as 100 % of control, the T/C [13] is reported as 100 % of control and the T/C [14] is reported as 92 % of control.

With `C(=C1SCCCS1)c1cc2c(cc1OCc1ccccc1)OCO2` the T/C (dose: 100.0 mg/kg/injection, schedule: Q01DX001 (ip), vehicle: Klucel (hydroxypropylcellulose) (HPC)) was 100 % of control, the T/C (dose: 200.0 mg/kg/injection, schedule: Q01DX001 (ip), vehicle: Klucel (hydroxypropylcellulose) (HPC)) was 105 % of control and the T/C (dose: 400.0 mg/kg/injection, schedule: Q01DX001 (ip), vehicle: Klucel (hydroxypropylcellulose) (HPC)) was 102 % of control.

For `CC(C)OC(=O)NP1(=O)NCc2ccccc2CN1`, the T/C [15] was 101 % of control, the T/C [16] was 103 % of control and the T/C [17] was 94 % of control.

With `CCOC(=O)Cc1ccc(-c2cn3c(n2)sc2ccccc23)cc1` the T/C [18] was 112 % of control, the T/C [19] was 103 % of control and the T/C (dose: 200.0 mg/kg/injection, schedule: Q01DX009 (ip), vehicle: Klucel (hydroxypropylcellulose) (HPC)) was 100 % of control.

With `C[C@]12CCC(=O)C=C1CC[C@@H]1[C@@H]2C(=O)C[C@@]2(C)[C@H]1CC[C@]2(O)C(=O)C=O` the T/C (dose: 12.5 mg/kg/injection, schedule: Q01DX009 (ip), vehicle: Klucel (hydroxypropylcellulose) (HPC)) was 111 % of control and 123 % of control, the T/C (dose: 25.0 mg/kg/injection, schedule: Q01DX009 (ip), vehicle: Klucel (hydroxypropylcellulose) (HPC)) was 119 % of control and the T/C [18] was 111 % of control and 120 % of control. The T/C [19] was 102 % of control and 113 % of control.

With `CC(C)(C)N1C(=O)C(Cl)(C#N)C1c1ccccc1` (stereo not given) the T/C (dose: 60.0 mg/kg/injection, schedule: Q01DX005 (ip), vehicle: Klucel (hydroxypropylcellulose) (HPC)) was 95 % of control, the T/C (dose: 120.0 mg/kg/injection, schedule: Q01DX005 (ip), vehicle: Klucel (hydroxypropylcellulose) (HPC)) was 92 % of control and the T/C (dose: 240.0 mg/kg/injection, schedule: Q01DX005 (ip), vehicle: Klucel (hydroxypropylcellulose) (HPC)) was 92 % of control.

`CN1C(=O)C2C(N(C3OC(CO)C(O)C3O)C1=O)C2(Cl)Cl` (stereo not given) was tested, and the T/C (dose: 75.0 mg/kg/injection, schedule: Q04DX003 (ip), vehicle: saline) was 100 % of control, the T/C [6] was 100 % of control and the T/C (dose: 150.0 mg/kg/injection, schedule: Q04DX003 (ip), vehicle: saline) was 99 % of control. The T/C [7] was 99 % of control, the T/C (dose: 300.0 mg/kg/injection, schedule: Q04DX003 (ip), vehicle: saline) was 102 % of control and the T/C [8] was 99 % of control.

In the case of `COc1ccc(-c2nc(C)nc3c2Cc2c(ccc4ccccc24)O3)cc1`, the T/C [3] is reported as 98 % of control, the T/C [4] is reported as 102 % of control and the T/C [5] is reported as 102 % of control.

For `CCN(CC)CCOC(=O)Cc1cccc2c(=O)cc(-c3cccs3)oc12`, the T/C (dose: 25.0 mg/kg/injection, schedule: Q01DX005 (ip), vehicle: Klucel (hydroxypropylcellulose) (HPC)) was 106 % of control, the T/C [15] was 104 % of control and 117 % of control and the T/C [16] was 109 % of control. For the same compound, the T/C [17] was 161 % of control.

For `N#Cc1nc2c(nc1C#N)-c1ccccc1/C2=C1/C(=O)Cc2ccccc21`, the T/C (dose: 60.0 mg/kg/injection, schedule: Q01DX005 (ip), vehicle: saline with Tween-80) was 98 % of control, the T/C (dose: 120.0 mg/kg/injection, schedule: Q01DX005 (ip), vehicle: saline with Tween-80) was 99 % of control and the T/C (dose: 240.0 mg/kg/injection, schedule: Q01DX005 (ip), vehicle: saline with Tween-80) was 102 % of control.
